{"source": "patent US20020028938A1", "about": "“Prostaglandin endoperoxide H synthase biosynthesis inhibitors” (priority 1997, published 2002)", "key": {"[1]": {"tested_on": "prostaglandin biosynthesis in vivo (pleural lavage eicosanoids)", "assay": "Rat carrageenan pleural inflammation (CIP) model", "description": "For oral administration, test compounds were suspended on the day of use in 100% polyethyleneglycol (PEG 400) with a motorized homogenizer equipped with a Teflon-coated pestle (TRI-R Instrument, Jamaica, N.Y.).\nTo compare the mean responses of the treatment groups, analysis of variance was applied. Percent inhibition values were determined by comparing the individual treatment mean values to the mean of the control group. Linear regression was used to estimate IC50's/ED50's in appropriate assays.\nPleural inflammation was induced in male adrenalectomized Sprague-Dawley rats following the method of Vinegar et al., Fed. Proc. 1976, 35, 2447-2456. Animals were orally dosed with experimental compounds, 30 minutes prior to the intrapleural injection of 2% lambda carrageenan (Sigma Chemical Co., St. Louis Mo.). Four hours later the animals were euthanized and the pleural cavities lavaged with ice cold saline. The lavage fluid was then added to two volumes of ice cold methanol (final methanol concentration 66%) to lyse cells and precipitate protein. Eicosanoids were determined by EIA as described above."}, "[2]": {"biological_target": "T1, human amnionic whole cell cyclooxygenase-2 (WISH cells) (Homo sapiens, UniProt P35354)", "T1 construct": "endogenous in cells; host or cells: human amnionic WISH cells, induced with IL-1beta", "T1 sequence (P35354 18-604)": "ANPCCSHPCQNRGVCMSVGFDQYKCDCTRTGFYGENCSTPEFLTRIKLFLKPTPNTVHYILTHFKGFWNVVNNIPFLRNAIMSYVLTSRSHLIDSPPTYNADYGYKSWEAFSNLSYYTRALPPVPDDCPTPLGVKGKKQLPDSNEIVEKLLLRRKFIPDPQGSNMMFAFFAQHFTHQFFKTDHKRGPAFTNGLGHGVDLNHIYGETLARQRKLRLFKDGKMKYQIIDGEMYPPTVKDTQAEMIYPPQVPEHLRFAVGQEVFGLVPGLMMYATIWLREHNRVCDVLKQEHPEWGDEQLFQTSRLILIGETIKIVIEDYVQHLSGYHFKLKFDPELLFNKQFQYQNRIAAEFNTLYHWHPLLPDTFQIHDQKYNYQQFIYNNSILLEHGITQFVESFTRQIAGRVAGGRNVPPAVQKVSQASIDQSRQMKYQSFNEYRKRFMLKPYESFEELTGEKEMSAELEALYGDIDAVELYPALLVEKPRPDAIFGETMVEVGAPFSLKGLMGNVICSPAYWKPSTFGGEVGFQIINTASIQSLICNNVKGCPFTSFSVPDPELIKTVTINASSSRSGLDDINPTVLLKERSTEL", "assay": "IL-1β induced PGE2 production in WISH cells", "assay_type": "cell-based", "settings": "read-out: Wish IC50 (parenthetical value)", "summary_of_the_method": "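PGE2 was quantified by enzyme immunoassay (optical density read) against standards made up in the matching medium. WISH cells at 80% confluence, washed and placed in serum-free Neuman-Tytell medium, received 5 ng/ml IL-1β plus test compound or DMSO vehicle (0.01% v/v).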"}, "[3]": {"biological_target": "T2, recombinant human Cox-2 (r-hu Cox-2) (Homo sapiens, UniProt P35354)", "T2 construct": "made in house; host or cells: baculovirus/Sf9 insect cells (microsomes)", "T2 sequence (P35354 18-604)": "T1 sequence (P35354 18-604)", "assay": "Recombinant human PGHS-2 enzyme assay (RHUCX2)", "assay_type": "biochemical", "settings": "read-out: RHUCX2 IC50 (parenthetical value)", "summary_of_the_method": "(§1)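 PGE2 by EIA (optical density) → % inhibition vs control-group mean → IC50 from linear regression.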"}, "[4]": {"biological_target": "T3, Human Whole Platelet Cyclooxygenase-1 (Homo sapiens, UniProt P23219)", "T3 construct": "from tissue; host or cells: human blood: isolated platelets (A4) or heparinised whole blood (A9)", "T3 sequence (P23219 24-599)": "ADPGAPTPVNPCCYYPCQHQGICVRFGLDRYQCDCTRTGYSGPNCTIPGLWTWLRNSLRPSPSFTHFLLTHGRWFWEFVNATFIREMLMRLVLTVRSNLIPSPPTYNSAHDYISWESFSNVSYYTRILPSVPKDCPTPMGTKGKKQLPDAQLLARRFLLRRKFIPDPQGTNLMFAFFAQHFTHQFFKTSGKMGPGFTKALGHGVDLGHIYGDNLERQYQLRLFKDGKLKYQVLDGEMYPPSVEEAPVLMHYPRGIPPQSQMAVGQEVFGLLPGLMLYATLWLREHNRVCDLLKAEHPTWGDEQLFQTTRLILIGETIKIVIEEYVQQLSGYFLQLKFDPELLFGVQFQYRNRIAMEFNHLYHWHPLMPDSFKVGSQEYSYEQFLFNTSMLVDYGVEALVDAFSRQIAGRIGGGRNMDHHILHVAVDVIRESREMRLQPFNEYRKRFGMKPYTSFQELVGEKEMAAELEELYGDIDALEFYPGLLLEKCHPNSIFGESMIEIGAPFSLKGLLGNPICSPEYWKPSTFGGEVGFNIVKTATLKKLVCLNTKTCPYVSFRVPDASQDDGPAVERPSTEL", "assay": "Human Whole Platelet Cyclooxygenase-1 assay (HWPX)", "assay_type": "cell-based", "settings": "read-out: HWPX IC50 (parenthetical value)", "summary_of_the_method": "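Thromboxane production was measured with a commercial kit after stimulation of washed human platelets (ACD-anticoagulated volunteer blood) by 8.8 μM final A23187 for 10 min. Test compounds were added 10 min before stimulus; cold 6 mM EDTA terminated the reaction.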"}, "[5]": {"biological_target": "T4, recombinant human Cox-1 (r-hu Cox1) (Homo sapiens, UniProt P23219)", "T4 construct": "made in house; host or cells: baculovirus/Sf9 insect cells (microsomes)", "T4 sequence (P23219 24-599)": "as above", "assay": "Recombinant human PGHS-1 enzyme assay (RHUCX1)", "assay_type": "biochemical", "settings": "read-out: RHUCX1 % Inh. at Dose", "summary_of_the_method": "as §1"}}, "note": "pIC50: −log10 of the molar value.", "data": [{"smiles": "NS(=O)(=O)c1ccc(-c2cnn(-c3ccc(F)cc3)c(=O)c2-c2ccc(F)cc2)cc1", "note": "[Example 89]", "values": [{"measurement": "inhibition in vivo at 10 mg/kg", "setting": "[1]; 4 h, 10 mpk oral, read-out: CIP % Inhib. @ 10 mpk", "value": 68.3, "unit": "%"}, {"measurement": "ED50", "setting": "[1]; oral", "value": 3.4, "unit": "mg/kg"}, {"measurement": "pIC50", "setting": "[2]", "value": 7.30}, {"measurement": "pIC50", "setting": "[3]", "value": 6.46}, {"measurement": "pIC50", "setting": "[4]", "value": 5.68}, {"measurement": "inhibition at 10 µM", "setting": "[5]; 10 μM", "value": 40, "unit": "%"}, {"measurement": "inhibition at 30 µM", "setting": "[5]; 30 μM", "value": 62, "unit": "%"}, {"measurement": "melting point", "value": "213 to 216", "unit": "°C"}]}]}
